Data: patent publication US12052991B2, “Substituted pyridinyloxybenzenes and salts thereof and use thereof as herbicidal agents” (Bayer Aktiengesellschaft, priority 2018, dated 2024)

Experiments:
Assay type in all cases: in vivo
[1] = system: Alopecurus myosuroides (ALOMY); assay: Herbicidal post-emergence action (Table B9); settings: rated visually after about 3 weeks, 100% = plants have died, 0% = like control plants
Outline: (§1)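 Visual percent activity relative to untreated controls (100% = plants dead, 0% = like controls) was scored about 3 weeks after treatment. Plants had been sprayed at the one-leaf stage with formulated compound at 1280 or 320 g/ha in 600 L/ha water containing 0.5% additive.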

[2] = system: Digitaria sanguinalis (DIGSA); assay: Herbicidal post-emergence action (Table B10); settings: visual rating about 3 weeks after treatment, 100% = plants have died, 0% = like control plants
Outline: as §1

[3] = system: Matricaria inodora (MATIN); assay: Herbicidal pre-emergence action, test C (Table C7); settings: visual scoring after about 3 weeks, 100% = plants have died, 0% = like control plants
Outline: (§2)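 Seeds are covered with sandy loam, and the formulated compound is applied to the soil surface before emergence at 1280 or 320 g/ha. Spray carries 0.5% additive at 600 L/ha. Damage is rated visually as percent versus untreated pots after roughly 3 weeks.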

Veronica persica (VERPE) [4] = assay: Herbicidal post-emergence action (Table B12); settings: visual rating about 3 weeks after treatment, 100% = plants have died, 0% = like control plants
Outline: as §1

Veronica persica (VERPE) [5] = assay: Herbicidal pre-emergence action, test C (Table C12); settings: visual scoring vs untreated controls
Outline: as §2

[6] = system: Alopecurus myosuroides (ALOMY); assay: Herbicidal pre-emergence action, test C (Table C9); settings: visual scoring after about 3 weeks, 100% = plants have died, 0% = like control plants
Outline: as §2

[7] = system: soybean (GLXMA, var. Sultana), wheat (TRZAS, var. Triso) and corn (ZEAMX, var. Aventura); assay: Pre-emergence crop plant compatibility, summary of Table E1; settings: applied pre-emergence to soybean, wheat and corn at 80 g of active ingredient per hectare; summary in words
Description: (§3) Seeds of monocotyledonous and dicotyledonous crop plants were placed in plastic or organic plant pots and covered with soil. The compounds of the invention, formulated in the form of wettable powders (WP) or as emulsion concentrates (EC), were then applied to the surface of the covering soil as aqueous suspension or emulsion with addition of 0.5% additive at a water application rate equivalent to 600 l/ha (converted). After the treatment, the pots were placed in a greenhouse and kept under good growth conditions for the test plants. After about 3 weeks, the effect of the preparations was scored visually in comparison with untreated controls as percentages. For example, 100% activity=the plants have died, 0% activity=like control plants.

[8] = system: Abutilon theophrasti (ABUTH); assay: Herbicidal pre-emergence action, test D, single sowings (Table D4); settings: dosage 80 g/ha, scored after about 3 weeks
Description: (§4) Seeds of monocotyledonous and dicotyledonous weed plants were laid out in plastic or organic plant pots (single sowings with one species of mono- or dicotyledonous weed plant per pot) and covered with soil. The compounds of the invention, formulated in the form of wettable powders (WP) or as emulsion concentrates (EC), were then applied to the surface of the covering soil as aqueous suspension or emulsion with addition of 0.5% additive at a water application rate equivalent to 600 l/ha (converted). After the treatment, the pots were placed in a greenhouse and kept under good growth conditions for the test plants. After about 3 weeks, the effect of the preparations was scored visually in comparison with untreated controls as percentages. For example, 100% activity=the plants have died, 0% activity=like control plants. Tables D1 to D8 below show the effects of selected compounds of the general formula (I) according to Table 1 on various harmful plants and an application rate corresponding to 80 g/ha, which were obtained by the experimental procedure mentioned above.

[9] = system: harmful plants ALOMY, DIGSA, SETVI, ABUTH, AMARE, MATIN, VIOTR and VERPE; assay: Herbicidal pre-emergence action (test D), summary of Tables D1-D8; settings: application rate of 80 g of active ingredient per hectare; summary in words
Description: Seeds of monocotyledonous and dicotyledonous weed plants were laid out in plastic or organic plant pots (single sowings with one species of mono- or dicotyledonous weed plant per pot) and covered with soil. The compounds of the invention, formulated in the form of wettable powders (WP) or as emulsion concentrates (EC), were then applied to the surface of the covering soil as aqueous suspension or emulsion with addition of 0.5% additive at a water application rate equivalent to 600 l/ha (converted). After the treatment, the pots were placed in a greenhouse and kept under good growth conditions for the test plants. After about 3 weeks, the effect of the preparations was scored visually in comparison with untreated controls as percentages. For example, 100% activity=the plants have died, 0% activity=like control plants.
Tables D1 to D8 below show the effects of selected compounds of the general formula (I) according to Table 1 on various harmful plants and an application rate corresponding to 80 g/ha, which were obtained by the experimental procedure mentioned above.

Setaria viridis (SETVI) = assay: Herbicidal pre-emergence action, test D, single sowings (Table D3); settings: dosage 80 g/ha, scored after about 3 weeks
Description: as §4

[10] = system: Matricaria inodora (MATIN); assay: Herbicidal pre-emergence action, test D, single sowings (Table D6); settings: dosage 80 g/ha, scored after about 3 weeks
Description: as §4

[11] = system: corn (ZEAMX, var. Aventura); assay: Pre-emergence crop plant compatibility (Table E1); settings: dosage 80 g/ha, scored after about 3 weeks, 0% = like control plants
Description: as §3

[12] = system: soybean (GLXMA, var. Sultana); assay: Pre-emergence crop plant compatibility (Table E1); settings: dosage 80 g/ha, scored after about 3 weeks, 0% = like control plants
Description: as §3

[13] = system: wheat (TRZAS, var. Triso); assay: Pre-emergence crop plant compatibility (Table E1); settings: dosage 80 g/ha, scored after about 3 weeks, 0% = like control plants
Description: as §3

| Structure (SMILES) | Post-emergence action against Alopecurus myosuroides (ALOMY) ([1]; 320 g/ha) [%] | Post-emergence action against Alopecurus myosuroides (ALOMY) ([1]; 1280 g/ha) [%] | Post-emergence action against Digitaria sanguinalis (DIGSA) ([2]; dosage 320 g/ha) [%] | Post-emergence action against Digitaria sanguinalis (DIGSA) ([2]; dosage 1280 g/ha) [%] | Pre-emergence action against Matricaria inodora (MATIN) ([3]; dosage 320 g/ha) [%] | Pre-emergence action against Matricaria inodora (MATIN) ([3]; dosage 1280 g/ha) [%] | Post-emergence action against Veronica persica (VERPE) (Veronica persica (VERPE) [4]; dosage 320 g/ha) [%] | Post-emergence action against Veronica persica (VERPE) (Veronica persica (VERPE) [4]; dosage 1280 g/ha) [%] | Pre-emergence action against Veronica persica (VERPE) (Veronica persica (VERPE) [5]; dosage 320 g/ha) [%] | Pre-emergence action against Veronica persica (VERPE) (Veronica persica (VERPE) [5]; dosage 1280 g/ha) [%] | Pre-emergence action against Alopecurus myosuroides (ALOMY) ([6]; dosage 1280 g/ha) [%] | crop plant tolerance in comparison with structurally similar pyrimidinyloxybenzenes (US 2016/333000 Ex. Nos. 53 and 144) [7] | Pre-emergence action against Abutilon theophrasti (ABUTH) [8] [%] | herbicidal activity against the harmful plants of Tables D1-D8 in pre-emergence treatment [9] | Pre-emergence action against Setaria viridis (SETVI) (Setaria viridis (SETVI)) [%] | Pre-emergence action against Matricaria inodora (MATIN) [10] [%] | Crop plant compatibility in pre-emergence, ZEAMX (damage to corn) [11] [%] | Crop plant compatibility in pre-emergence, GLXMA (damage to soybean) [12] [%] | Crop plant compatibility in pre-emergence, TRZAS (damage to wheat) [13] [%] | Pre-emergence action against Alopecurus myosuroides (ALOMY) ([6]; dosage 320 g/ha) [%] |
| --- | --- | --- | --- | --- | --- | --- | --- | --- | --- | --- | --- | --- | --- | --- | --- | --- | --- | --- | --- | --- |
| Cc1cccc(Oc2ccc(Cl)cn2)c1-c1cc(C(F)F)no1 [Example 1-18, 5-[2-[(5-Chloro-2-pyridyl)oxy]-6-methylphenyl]-3-(difluoromethyl)isoxazole] | 100 | 100 | 100 | 100 | 100 | 100 | 100 | 100 | 100 | 100 | 90 |  |  |  |  |  |  |  |  |  |
| FC(F)c1cc(-c2ccccc2Oc2ccc(Cl)cn2)on1 [Example 1-35] | 100 | 100 | 90 | 100 | 90 | 100 | 100 | 100 | 100 | 100 | 90 | significantly improved crop plant tolerance | 80 | very good herbicidal activity | 100 | 80 | 10 | 20 | 0 |  |
| Fc1cccc(Oc2ccc(Cl)cn2)c1-c1cc(C(F)F)no1 [Example 1-17] |  |  |  |  |  |  |  |  |  |  |  | significantly improved crop plant tolerance | 100 | very good herbicidal activity | 100 | 100 | 0 | 20 | 20 |  |
| Fc1cccc(Oc2ccc(Br)cn2)c1-c1cc(C(F)F)no1 [Example 1-40] | 100 | 100 | 100 | 100 | 100 | 100 | 100 | 100 | 100 | 100 | 100 |  |  |  |  |  |  |  |  | 100 |
| Fc1cc(Cl)cnc1Oc1ccccc1-c1cc(C(F)F)no1 [Example 1-36] | 100 | 100 | 100 | 100 |  |  | 100 | 100 | 100 | 100 | 100 | significantly improved crop plant tolerance | 100 | very good herbicidal activity | 80 | 100 | 20 | 10 | 0 | 90 |
| Cc1cccc(Oc2ncc(Cl)cc2F)c1-c1cc(C(F)F)no1 [Example 1-20] | 100 | 100 | 100 | 100 | 100 | 100 | 100 | 100 | 100 | 100 | 100 |  |  |  |  |  |  |  |  | 90 |
| Fc1cc(Cl)cnc1Oc1cccc(F)c1-c1cc(C(F)F)no1 [Example 1-19] |  |  |  |  | 100 | 100 |  |  |  |  |  | significantly improved crop plant tolerance | 100 | very good herbicidal activity | 100 | 100 | 10 | 20 | 30 |  |
